Reference: ChEMBL document CHEMBL3751728, “C5-substituted pyrido[2,3-d]pyrimidin-7-ones as highly specific kinase inhibitors targeting the clinical resistance-related EGFRT790Mmutant” (Medchemcomm, 2015)
The source made the active and inactive calls. The calls are words filed in the database; no cut-off is given here.

Tests used:
A-431 = experiment: Cytotoxicity against human A431 cells overexpressing wild type EGFR after 72 hrs by SRB assay; type: cell-based; settings: A-431, 72 h
NCI-H1975 [1] = experiment: Effect on total EGFR T790M mutant level in EGF-stimulated human NCI-H1975 cells preincubated for 2 hrs followed by EGF stimulation measured after 15 mins by Western blot analysis; type: ADME, cell-based; settings: nci-h1975, 0.25 h
[2] = target: T1, Epidermal growth factor receptor (Homo sapiens, UniProt P00533); experiment: Inhibition of EGF-stimulated wild type EGFR phosphorylation in human A431 cells at 100 nM preincubated for 2 hrs followed by EGF stimulation measured after 15 mins by Western blot analysis; type: cell-based; settings: a-431, 0.25 h, 0.1 µM
T1 sequence (P00533 whole entry): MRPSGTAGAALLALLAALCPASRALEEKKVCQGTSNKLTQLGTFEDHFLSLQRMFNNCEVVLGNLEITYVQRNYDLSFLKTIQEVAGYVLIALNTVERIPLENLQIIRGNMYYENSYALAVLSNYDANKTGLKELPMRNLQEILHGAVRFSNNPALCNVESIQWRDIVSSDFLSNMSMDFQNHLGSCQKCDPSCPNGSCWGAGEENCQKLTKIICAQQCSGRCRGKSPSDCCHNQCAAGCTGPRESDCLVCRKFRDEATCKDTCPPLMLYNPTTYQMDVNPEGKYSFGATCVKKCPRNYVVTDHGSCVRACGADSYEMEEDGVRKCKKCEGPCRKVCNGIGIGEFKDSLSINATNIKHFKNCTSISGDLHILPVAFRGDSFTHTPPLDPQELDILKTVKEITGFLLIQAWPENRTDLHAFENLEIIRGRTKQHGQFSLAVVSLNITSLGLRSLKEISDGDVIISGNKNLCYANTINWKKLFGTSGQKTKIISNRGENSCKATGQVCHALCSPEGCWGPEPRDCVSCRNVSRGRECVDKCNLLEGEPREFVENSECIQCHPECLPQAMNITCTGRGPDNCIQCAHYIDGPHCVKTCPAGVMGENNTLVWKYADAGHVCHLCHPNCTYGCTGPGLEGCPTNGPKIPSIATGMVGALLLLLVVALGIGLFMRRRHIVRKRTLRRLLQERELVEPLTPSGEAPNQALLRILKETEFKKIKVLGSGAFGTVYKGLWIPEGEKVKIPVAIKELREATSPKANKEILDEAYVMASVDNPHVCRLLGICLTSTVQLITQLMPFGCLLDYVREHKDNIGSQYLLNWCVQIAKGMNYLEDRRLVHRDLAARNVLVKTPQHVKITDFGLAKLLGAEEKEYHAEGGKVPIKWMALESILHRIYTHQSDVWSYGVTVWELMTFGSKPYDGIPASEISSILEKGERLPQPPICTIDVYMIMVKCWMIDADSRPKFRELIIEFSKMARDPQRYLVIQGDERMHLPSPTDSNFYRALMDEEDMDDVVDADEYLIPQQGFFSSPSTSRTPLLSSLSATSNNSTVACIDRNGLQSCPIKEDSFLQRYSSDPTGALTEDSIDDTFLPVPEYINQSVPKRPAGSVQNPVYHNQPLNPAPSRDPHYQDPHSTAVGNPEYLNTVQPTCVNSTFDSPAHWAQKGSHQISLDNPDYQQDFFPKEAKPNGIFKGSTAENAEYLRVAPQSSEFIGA

[3] = tested on: Epidermal growth factor receptor (Homo sapiens), P00533 [L858R,T790M]; settings: H1975, 1 uM
Epidermal growth factor receptor (Homo sapiens), P00533 [L858R,T790M], sequence (P00533 whole entry T790M/L858R, looked up): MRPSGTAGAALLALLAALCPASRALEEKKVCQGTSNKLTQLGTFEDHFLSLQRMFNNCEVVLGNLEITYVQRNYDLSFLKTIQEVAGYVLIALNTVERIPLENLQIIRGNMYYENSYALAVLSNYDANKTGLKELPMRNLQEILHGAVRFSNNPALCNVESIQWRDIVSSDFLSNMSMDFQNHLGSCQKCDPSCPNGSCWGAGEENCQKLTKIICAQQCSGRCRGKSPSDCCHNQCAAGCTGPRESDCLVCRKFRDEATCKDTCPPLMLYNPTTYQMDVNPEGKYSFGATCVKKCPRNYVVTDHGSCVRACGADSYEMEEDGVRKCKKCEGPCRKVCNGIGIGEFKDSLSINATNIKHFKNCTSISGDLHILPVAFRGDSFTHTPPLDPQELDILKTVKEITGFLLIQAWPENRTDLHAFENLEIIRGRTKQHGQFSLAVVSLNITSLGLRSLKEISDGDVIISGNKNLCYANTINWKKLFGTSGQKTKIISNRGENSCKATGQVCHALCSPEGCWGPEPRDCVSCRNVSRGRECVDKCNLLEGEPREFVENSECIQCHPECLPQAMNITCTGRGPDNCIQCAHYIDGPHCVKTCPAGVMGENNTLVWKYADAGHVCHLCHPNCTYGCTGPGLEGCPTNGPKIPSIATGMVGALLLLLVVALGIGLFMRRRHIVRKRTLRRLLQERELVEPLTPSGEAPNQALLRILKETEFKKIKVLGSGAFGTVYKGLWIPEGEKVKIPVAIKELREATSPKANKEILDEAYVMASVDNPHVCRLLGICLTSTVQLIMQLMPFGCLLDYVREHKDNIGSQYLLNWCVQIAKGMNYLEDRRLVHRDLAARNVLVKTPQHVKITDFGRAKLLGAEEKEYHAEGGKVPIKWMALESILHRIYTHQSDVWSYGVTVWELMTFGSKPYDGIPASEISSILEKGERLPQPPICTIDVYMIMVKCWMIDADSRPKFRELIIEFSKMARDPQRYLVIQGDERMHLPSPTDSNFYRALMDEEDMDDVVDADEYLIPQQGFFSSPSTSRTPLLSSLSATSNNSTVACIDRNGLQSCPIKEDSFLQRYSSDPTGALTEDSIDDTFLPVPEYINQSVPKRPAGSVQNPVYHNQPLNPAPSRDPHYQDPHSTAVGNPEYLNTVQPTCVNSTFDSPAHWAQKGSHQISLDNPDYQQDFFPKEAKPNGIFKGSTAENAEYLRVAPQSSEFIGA

[4] = tested on: Epidermal growth factor receptor (Homo sapiens), P00533 [L858R,T790M]; settings: 100 nM
[5] = target: T1, Epidermal growth factor receptor; experiment: Inhibition of EGF-stimulated wild type EGFR phosphorylation in human A431 cells assessed as suppression of ERK phosphorylation at 100 nM preincubated for 2 hrs followed by EGF stimulation measured after 15 mins by Western blot analysis; type: cell-based; settings: a-431, 0.25 h, 0.1 µM
[6] = target: T2, Epidermal growth factor receptor (Homo sapiens, UniProt P00533, L858R/T790M)
T2 sequence (P00533 25-1210 T790M/L858R limits assumed): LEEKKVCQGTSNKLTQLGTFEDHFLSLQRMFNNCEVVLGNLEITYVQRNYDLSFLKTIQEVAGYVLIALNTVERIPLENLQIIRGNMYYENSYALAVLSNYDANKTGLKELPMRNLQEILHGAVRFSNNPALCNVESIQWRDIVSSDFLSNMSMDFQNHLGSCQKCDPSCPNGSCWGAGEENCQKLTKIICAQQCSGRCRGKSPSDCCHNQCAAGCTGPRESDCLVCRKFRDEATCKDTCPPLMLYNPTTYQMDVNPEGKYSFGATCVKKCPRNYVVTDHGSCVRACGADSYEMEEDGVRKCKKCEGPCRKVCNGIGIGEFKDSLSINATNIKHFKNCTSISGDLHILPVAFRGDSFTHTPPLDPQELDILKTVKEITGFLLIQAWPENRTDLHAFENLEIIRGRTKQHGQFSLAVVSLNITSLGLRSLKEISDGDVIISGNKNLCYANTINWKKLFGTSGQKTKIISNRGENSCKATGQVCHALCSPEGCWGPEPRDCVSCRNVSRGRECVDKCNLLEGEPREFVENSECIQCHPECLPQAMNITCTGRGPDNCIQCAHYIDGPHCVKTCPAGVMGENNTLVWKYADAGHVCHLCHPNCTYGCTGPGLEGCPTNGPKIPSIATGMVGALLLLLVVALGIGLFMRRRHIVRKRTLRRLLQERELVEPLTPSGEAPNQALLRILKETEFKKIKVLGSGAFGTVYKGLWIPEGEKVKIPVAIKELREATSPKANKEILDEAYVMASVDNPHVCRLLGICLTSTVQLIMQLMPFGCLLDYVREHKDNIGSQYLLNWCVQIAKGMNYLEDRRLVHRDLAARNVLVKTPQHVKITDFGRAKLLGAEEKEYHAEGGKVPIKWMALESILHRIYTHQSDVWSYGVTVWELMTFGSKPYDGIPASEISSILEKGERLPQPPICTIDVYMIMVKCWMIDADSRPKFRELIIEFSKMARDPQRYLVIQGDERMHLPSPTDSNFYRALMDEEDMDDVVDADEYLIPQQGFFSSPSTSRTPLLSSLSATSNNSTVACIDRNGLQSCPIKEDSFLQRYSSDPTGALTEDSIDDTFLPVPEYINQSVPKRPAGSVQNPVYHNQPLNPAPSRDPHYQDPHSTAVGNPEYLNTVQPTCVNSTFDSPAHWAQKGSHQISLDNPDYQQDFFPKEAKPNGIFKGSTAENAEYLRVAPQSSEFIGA

NCI-H1975 [7] = experiment: Cytotoxicity against human NCI-H1975 harboring EGFR L858R/T790M mutant after 72 hrs by SRB assay; type: functional, cell-based; settings: NCI-H1975, 72 h
Homo sapiens [8] = species on record: Homo sapiens; experiment: Selectivity index, ratio of IC50 for wild type EGFR (unknown origin) to IC50 for EGFR L858R/T790M mutant (unknown origin)
NCI-H1975 [9] = experiment: Selectivity index, ratio of IC50 for human WI38 cells to IC50 for human NCI-H1975 cells harboring EGFR L858R/T790M mutant
NCI-H1975 [10] = experiment: Effect on total AKT level in EGF-stimulated human NCI-H1975 cells expressing EGFR T790M mutant preincubated for 2 hrs followed by EGF stimulation measured after 15 mins by Western blot analysis; type: ADME, cell-based; settings: nci-h1975, 0.25 h
[11] = target: T1, Epidermal growth factor receptor
[12] = target: T1, Epidermal growth factor receptor; experiment: Inhibition of EGF-stimulated wild type EGFR phosphorylation in human A431 cells assessed as suppression of AKT phosphorylation at 100 nM preincubated for 2 hrs followed by EGF stimulation measured after 15 mins by Western blot analysis; type: cell-based; settings: a-431, 0.25 h, 0.1 µM
Homo sapiens [13] = species on record: Homo sapiens; experiment: Selectivity ratio of Kd for wild type human EGFR to Kd for human EGFR L858R/T790M mutant
NCI-H1975 [14] = experiment: Selectivity index, ratio of IC50 for human A431 cells overexpressing wild type EGFR to IC50 for human NCI-H1975 cells harboring EGFR L858R/T790M mutant
[15] = target: T1, Epidermal growth factor receptor; experiment: Inhibiton of wild type EGFR (unknown origin) using Poly (Glu4Tyr1) as substrate incubated for 1 hr by ELISA; type: single protein
NCI-H1975 [16] = experiment: Effect on total ERK level in EGF-stimulated human NCI-H1975 cells expressing EGFR T790M mutant preincubated for 2 hrs followed by EGF stimulation measured after 15 mins by Western blot analysis; type: ADME, cell-based; settings: nci-h1975, 0.25 h
NCI-H1975 [17] = experiment: Selectivity index, ratio of IC50 for human GES1 cells to IC50 for human NCI-H1975 cells harboring EGFR L858R/T790M mutant
[18] = target: T2, Epidermal growth factor receptor; type: protein assay
NCI-H1975 [19] = experiment: Selectivity index, ratio of IC50 for human LO2 cells to IC50 for human NCI-H1975 cells harboring EGFR L858R/T790M mutant
NCI-H1975 [20] = experiment: Selectivity index, ratio of IC50 for human MCF10A cells to IC50 for human NCI-H1975 cells harboring EGFR L858R/T790M mutant
[21] = tested on: Epidermal growth factor receptor (Homo sapiens), P00533 [T790M]; settings: 100 nM
Epidermal growth factor receptor (Homo sapiens), P00533 [T790M], sequence (P00533 whole entry T790M): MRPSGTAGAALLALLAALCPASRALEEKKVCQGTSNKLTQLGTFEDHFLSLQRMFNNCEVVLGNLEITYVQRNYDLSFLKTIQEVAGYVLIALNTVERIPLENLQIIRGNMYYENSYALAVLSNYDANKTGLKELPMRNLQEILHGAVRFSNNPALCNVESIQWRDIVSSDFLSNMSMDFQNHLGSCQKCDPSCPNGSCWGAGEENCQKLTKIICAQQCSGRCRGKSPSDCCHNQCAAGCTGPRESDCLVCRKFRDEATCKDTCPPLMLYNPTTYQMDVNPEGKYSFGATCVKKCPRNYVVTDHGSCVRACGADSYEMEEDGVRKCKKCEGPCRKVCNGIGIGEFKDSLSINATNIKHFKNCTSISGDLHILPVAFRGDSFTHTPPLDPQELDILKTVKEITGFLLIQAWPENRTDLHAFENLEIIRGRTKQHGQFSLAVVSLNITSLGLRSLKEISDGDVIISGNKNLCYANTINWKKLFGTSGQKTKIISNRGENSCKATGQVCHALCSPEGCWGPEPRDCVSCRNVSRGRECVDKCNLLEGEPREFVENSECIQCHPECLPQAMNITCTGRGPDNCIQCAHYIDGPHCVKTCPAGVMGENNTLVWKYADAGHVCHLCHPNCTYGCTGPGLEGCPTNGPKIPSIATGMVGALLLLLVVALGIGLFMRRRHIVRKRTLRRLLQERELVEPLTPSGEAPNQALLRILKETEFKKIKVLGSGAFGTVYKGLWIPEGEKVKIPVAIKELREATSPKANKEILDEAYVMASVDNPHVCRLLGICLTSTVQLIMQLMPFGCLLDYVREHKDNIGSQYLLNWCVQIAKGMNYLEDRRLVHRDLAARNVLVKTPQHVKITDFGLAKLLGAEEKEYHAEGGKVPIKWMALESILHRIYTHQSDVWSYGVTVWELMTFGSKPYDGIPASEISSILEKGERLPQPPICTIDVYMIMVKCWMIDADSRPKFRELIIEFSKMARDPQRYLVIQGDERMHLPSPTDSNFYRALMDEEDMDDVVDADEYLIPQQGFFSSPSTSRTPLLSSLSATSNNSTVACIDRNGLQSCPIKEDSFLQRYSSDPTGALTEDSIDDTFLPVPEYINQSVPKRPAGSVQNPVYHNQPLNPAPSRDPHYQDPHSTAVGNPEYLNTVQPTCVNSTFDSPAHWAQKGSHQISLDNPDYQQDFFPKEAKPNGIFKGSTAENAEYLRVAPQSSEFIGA

[22] = tested on: Epidermal growth factor receptor (Homo sapiens), P00533 [T790M]; settings: H1975, 0.3 to 30 nM
[23] = tested on: Epidermal growth factor receptor (Homo sapiens), P00533 [T790M]; settings: H1975, 0.3 to 30 nM; remark: listed apart in the source
[24] = tested on: Epidermal growth factor receptor (Homo sapiens), P00533 [T790M]; settings: H1975, 0.3 to 30 nM; remark: listed apart in the source

SMILES | Kd [6] | Kd [11] | IC50 [15] | IC50 [18] | further results
C=CC(=O)Nc1cccc(-n2c(=O)cc(C)c3cnc(Nc4ccc(N5CCN(C)CC5)cc4OC)nc32)c1 | 0.26 nM | 48 nM | 240 nM | 0.8 nM | IC50 (A-431): 870 nM; Activity (NCI-H1975 [1]): Non-toxic; inhibition (INH) [2]: Active; inhibition [3]: Active; inhibition [4]: 99.5%; inhibition (INH) [5]: Active; IC50 (NCI-H1975 [7]): 2.8 nM; Ratio IC50 (Homo sapiens [8]): 300; Ratio IC50 (NCI-H1975 [9]): >1000; Activity (NCI-H1975 [10]): Non-toxic; inhibition (INH) [12]: Active; Selectivity ratio (Homo sapiens [13]): 185; Ratio IC50 (NCI-H1975 [14]): 311; Activity (NCI-H1975 [16]): Non-toxic; Ratio IC50 (NCI-H1975 [17]): >1000; Ratio IC50 (NCI-H1975 [19]): >1000; Ratio IC50 (NCI-H1975 [20]): >1000; inhibition [21]: < 65%
C=CC(=O)Nc1cccc(-n2c(=O)cc(CCC)c3cnc(Nc4ccc(N5CCN(C)CC5)cc4OC)nc32)c1 | – | – | 970 nM | 17.8 nM | –
C=CC(=O)Nc1cccc(-n2c(=O)cc(-c3ccccc3)c3cnc(Nc4ccc(N5CCN(C)CC5)cc4OC)nc32)c1 | – | – | 97 nM | 21 nM | –
C=CC(=O)Nc1cccc(-n2c(=O)cc(-c3ccc(-c4ccccc4)cc3)c3cnc(Nc4ccc(N5CCN(C)CC5)cc4OC)nc32)c1 | – | – | > 1000 nM | > 1000 nM | –
C=CC(=O)Nc1cccc(-n2c(=O)cc(C)c3cnc(Nc4ccc(N5CCN(C)CC5)cc4OCC)nc32)c1 | 1.2 nM | 350 nM | 170 nM | 11 nM | –
C=CC(=O)Nc1cccc(-n2c(=O)cc(C3CC3)c3cnc(Nc4ccc(N5CCN(C)CC5)cc4OC)nc32)c1 | 2.2 nM | 57 nM | 120 nM | 10 nM | –
C=CC(=O)Nc1cccc(-n2c(=O)cc(CC)c3cnc(Nc4ccc(N5CCN(C)CC5)cc4OC)nc32)c1 | 1.8 nM | 140 nM | 114 nM | 6.7 nM | –
C=CC(=O)Nc1cccc(-n2c(=O)cc(C(C)C)c3cnc(Nc4ccc(N5CCN(C)CC5)cc4OC)nc32)c1 | – | – | 98 nM | 94 nM | –
C=CC(=O)Nc1cccc(-n2c(=O)cc(C)c3cnc(Nc4ccc(N5CCN(C)CC5)cc4OC(C)C)nc32)c1 | – | – | > 1000 nM | 78 nM | –
C=CC(=O)Nc1cccc(-n2c(=O)c(-c3ccccc3)cc3cnc(Nc4ccc(N5CCN(C)CC5)cc4OC)nc32)c1 | 0.5 nM | 2.5 nM | 7.8 nM | 0.2 nM | –
C=CC(=O)Nc1cccc(-n2c(=O)cc(C)c3c(C)nc(Nc4ccc(N5CCN(C)CC5)cc4OC)nc32)c1 | – | – | > 1000 nM | 280 nM | –
C=CC(=O)Nc1cccc(-n2c(=O)ccc3cnc(Nc4ccc(N5CCN(C)CC5)cc4OC)nc32)c1 | 0.43 nM | 14 nM | 15 nM | 0.5 nM | Ratio IC50 (Homo sapiens [8]): 30; Selectivity ratio (Homo sapiens [13]): 32.5
C=CC(=O)Nc1cccc(-n2c(=O)cc(C(F)(F)F)c3cnc(Nc4ccc(N5CCN(C)CC5)cc4OC)nc32)c1 | – | – | > 1000 nM | 39 nM | –
C=CC(=O)Nc1cccc(-n2c(=O)cc(N(C)C)c3cnc(Nc4ccc(N5CCN(C)CC5)cc4OC)nc32)c1 | – | – | 210 nM | 95 nM | –
C=CC(=O)Nc1cccc(-n2c(=O)c(-c3ccccc3)c(C)c3cnc(Nc4ccc(N5CCN(C)CC5)cc4OC)nc32)c1 | 0.91 nM | 4.3 nM | 20 nM | 1.6 nM | –
C=CC(=O)Nc1cccc(-n2c(=O)c(C)cc3cnc(Nc4ccc(N5CCN(C)CC5)cc4OC)nc32)c1 | 0.88 nM | 6.2 nM | 16 nM | 1.3 nM | –
C=CC(=O)Nc1cccc(-n2c(=O)c(Cc3ccccc3)cc3cnc(Nc4ccc(N5CCN(C)CC5)cc4OC)nc32)c1 | 0.5 nM | 1.2 nM | 1 nM | 0.5 nM | Ratio IC50 (Homo sapiens [8]): 2
C=CC(=O)Nc1cccc(-n2c(=O)cc(C)c3cnc(Nc4ccc(N5CCN(C)CC5)cc4OCCC)nc32)c1 | – | – | 270 nM | 19 nM | –
C=CC(=O)Nc1cccc(Oc2nc(Nc3ccc(N4CCN(C)CC4)cc3OC)ncc2Cl)c1 | – | – | – | – | inhibition [22]: Active; inhibition [23]: Active; inhibition [24]: Active
